{"source": "patent US20060159676A1", "about": "“Methods for modulating angiogenesis, lymphangiogenesis, and apoptosis with apelin compositions” (priority 2005, published 2006)", "key": {"[1]": {"system": "SVEC cells (lymphatic endothelial cell line SVEC4-10)", "settings": "apelin 10 ng/ml, overnight serum starve, 8 hours of treatment", "procedure": "Cell migration assays as described above were performed with SVEC cells. Apelin was provided at a concentration of 10 ng/ml, and VEGF-C was provided at a concentration of 100 ng/ml."}, "[2]": {"system": "BAE/APJ#2 cells (bovine aortic endothelial cells expressing mouse APJ)", "assay": "BAE/APJ#2 endothelial cell proliferation (BrdU incorporation)", "type": "cell-based", "settings": "10 ng/ml, 24 hours, after 48 hours serum starvation", "experimental": "SU1498 was included in proliferation cultures at a concentration of 10 ng/ml and results were assayed using BrdU incorporation. After growth factor incubation, BrdU was added to each well at a final concentration of 10 μM for 2 hours, cells were washed, and fixed for BrdU immunocytochemistry.\nCells were fixed in 100% ice cold methanol at 4° C. for 2 hours to overnight. Prior to staining, cells were air dried and rehydrated for 3 minutes with PBS buffer. DNA was denatured at 37° C. with 2 M HCl, and neutralized with 2 washes for 5 minutes in 0.1 M borate buffer (pH 8.5). […] FITC-labeled anti-BrdU antibody (5 μg/ml) in block was added for 1 hour at room temperature. Cells were counterstained with propidium iodide following several washes in PBS buffer. For each experiment, 4 random fields were photographed for determination of percentage BrdU labeling."}, "lymphatic vessels": {"system": "lymphatic vessels", "assay": "In vivo lymphatic vessel branching assay, quail CAM", "settings": "collagen disk with 50 ng apelin or 100 ng VEGF-C on CAM of 7 day quail embryos, 18 hours", "experimental": "(§1) All experiments were carried out using chorioallantoic membranes (CAMs) of quail embryos. Quail embryos used for the lymphatic experiments were 7 days old. Collagen purified from rat tails (Bernanke and Markwald, 1982) was polymerized in 2 mm disks at a final concentration of approximately 1.6 mg/ml in standard phosphate buffered saline (PBS). The total volume of the collagen disk was approximately 10 μl. For experimental treatments, the collagen disks were supplemented with either 50 ng of apelin peptide or 100 ng of VEGF-C protein prior to polymerization at 37° C. for 30 minutes. The VEGF-C was a positive control for these experiments. (Recombinant Human VEGF-C (Cys156Ser), R&D Systems, cat # 752-vc). Apelin peptide was synthesized by Sigma-Genosys (>90% purity).\nFor lymphangiogenesis assays, the CAMs of 7 day quail embryos were exposed, in ovo, and the collagen disks were placed directly onto the surface of the CAM. […]\n(§2) The samples were incubated with primary antibody (Prox1, Research Diagnostics, cat # RDI-102PA30, diluted to 2 μg/ml final concentration) for 4 hours at room temperature or overnight at 4° C. […] Both the lymphatic cell number as well as the number of lymphatic branches were determined.\nBoth blood vessels and lymphatic vessels were stained with the QH-1 antibody. […] The number of lymphatic vessels branching away from blood vessels (towards the collagen disk) were counted. […]"}, "[3]": {"system": "mouse endothelial cells (bEnd3)", "assay": "bEnd3 endothelial cell proliferation (BrdU incorporation)", "type": "cell-based", "settings": "apelin 10 ng/ml or VEGF 50 ng/ml; 0.1 ng/ml to 1 μg/ml (FIG. 17)", "experimental": "Similar cellular proliferation assays were performed using mouse endothelial cells (bEnd3) that constitutively express APJ. […] SU1498 was included in proliferation cultures at a 25 μM concentration, and results were assayed using BrdU incorporation.\nProliferation inhibition experiments with the bEnd3 cells also were carried out using FGF (50 ng/ml) or the FGF pathway inhibitor SU5402 (FIG. 19). SU5402 was included in proliferation cultures at a 20 μM concentration, and results were assayed using BrdU incorporation."}, "[4]": {"system": "lymphatic endothelial cells", "assay": "In vivo lymphatic cell number assay, quail CAM (Prox1 staining)", "settings": "collagen disk with 50 ng apelin or 100 ng VEGF-C on CAM of 7 day quail embryos, 18 hours", "experimental": "as §1, with “purity). […]” for “purity).”\nas §2\nAssays for lymphatic cell number were carried out in areas of the CAM that were close to the location of the collagen disk as described above. Since Prox1 specifically stains lymphatic endothelial cell nuclei, the number of cells in the lymphatic branches was counted directly. […]"}}, "data": [{"substance": "Apelin-13", "values": [{"measurement": "lymphatic endothelial cell migration", "setting": "[1]", "value": "chemotactic agent for lymphatic endothelial cells"}, {"measurement": "endothelial cell proliferation (BrdU labeling)", "setting": "[2]", "value": "promotes endothelial cell proliferation to a similar extent as VEGF"}, {"measurement": "number of lymphatic vessels branching away from blood vessels", "setting": "lymphatic vessels", "value": "positive regulator of lymphatic branching angiogenesis"}, {"measurement": "cellular proliferation of endothelial cells", "setting": "[3]", "value": "induces the cellular proliferation of endothelial cells"}, {"measurement": "lymphatic cell number (Prox1 positive nuclei)", "setting": "[4]", "value": "mitogenic factor for lymphatic endothelial cells"}]}]}
